Laboratory results: patent US10988474B2, “Compounds acting at multiple prostaglandin receptors giving a general anti-inflammatory response” (ALLERGAN, INC., priority 2011, dated 2021)

Columns and labels:
Type in all cases: cell-based
[1] = target: T1, human prostanoid FP receptor (Homo sapiens, UniProt P43088); assay: FLIPR Ca2+ signaling PG antagonist assay, FP stable cell line; settings: HEK-293 EBNA cells, human recombinant FP, no exogenous G-protein; standard agonist 17-phenyl-PGF2α
T1 construct: expressed in transfected cells
How it was run: (§1)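 Stable HEK-293 EBNA lines (DP1 with chimeric Gqs, EP3 with Gqi, EP1 and FP without exogenous G protein) were Fluo-4AM-loaded and pretreated 4.5 min at 37 °C with compound (0.1–30 μM). Agonist (BW 245C for DP1, PGE2 for EP1/EP3, 17-phenyl-PGF2α for FP) was then added at 10^−11–10^−5 M. Peak Ca2+ fluorescence was taken relative to agonist at 10^−6 M.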

[2] = target: T2, human prostanoid DP1 receptor (Homo sapiens, UniProt Q13258); assay: FLIPR Ca2+ signaling PG antagonist assay, DP1 stable cell line; settings: HEK-293 EBNA cells, human recombinant DP1 with chimeric Gqs; standard agonist BW 245C; read-out: DP (Kb, PG antagonist activity)
T2 construct: expressed in transfected cells
T2 sequence (Q13258 1-359): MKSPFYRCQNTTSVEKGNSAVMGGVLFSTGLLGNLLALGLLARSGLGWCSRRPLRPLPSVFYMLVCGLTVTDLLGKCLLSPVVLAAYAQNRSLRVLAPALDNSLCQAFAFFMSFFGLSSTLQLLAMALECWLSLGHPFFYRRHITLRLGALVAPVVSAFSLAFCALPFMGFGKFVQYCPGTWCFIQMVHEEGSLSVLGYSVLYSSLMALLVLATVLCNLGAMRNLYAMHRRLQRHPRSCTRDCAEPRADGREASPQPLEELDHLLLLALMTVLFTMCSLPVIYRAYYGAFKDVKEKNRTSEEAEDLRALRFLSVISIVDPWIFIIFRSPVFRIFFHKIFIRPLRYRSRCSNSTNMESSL
How it was run: as §1

[3] = target: T3, human prostanoid EP1 receptor (Homo sapiens, UniProt P34995); assay: FLIPR Ca2+ signaling PG antagonist assay, EP1 stable cell line; settings: HEK-293 EBNA cells, human recombinant EP1, no exogenous G-protein; standard agonist PGE2
T3 construct: expressed in transfected cells
T3 sequence (P34995 1-402): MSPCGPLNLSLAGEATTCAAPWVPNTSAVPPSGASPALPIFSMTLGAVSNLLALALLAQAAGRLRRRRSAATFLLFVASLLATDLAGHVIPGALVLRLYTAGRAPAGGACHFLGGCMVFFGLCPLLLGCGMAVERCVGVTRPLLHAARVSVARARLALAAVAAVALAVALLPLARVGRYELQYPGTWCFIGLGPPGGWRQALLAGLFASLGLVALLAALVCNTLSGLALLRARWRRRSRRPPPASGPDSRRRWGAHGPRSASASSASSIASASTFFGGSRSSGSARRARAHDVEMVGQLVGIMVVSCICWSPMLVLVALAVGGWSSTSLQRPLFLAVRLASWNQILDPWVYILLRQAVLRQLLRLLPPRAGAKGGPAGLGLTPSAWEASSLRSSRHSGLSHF
How it was run: as §1

[4] = target: T4, human prostanoid EP2 receptor (Homo sapiens, UniProt P43116); assay: FLIPR Ca2+ signaling PG antagonist assay, EP2 stable cell line; settings: HEK-293 EBNA cells, human recombinant EP2 with chimeric Gqs; standard agonist PGE2
T4 construct: expressed in transfected cells
How it was run: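 HEK-293 EBNA stable lines; EP2 co-expressed with chimeric Gqs, EP1/IP/TP with no exogenous G protein. Fluo-4AM-loaded cells pretreated 4.5 min at 37 °C with compound (0.1–30 μM; TP 0.067–1 μM), then standard agonist (PGE2, cicaprost, U-46619) 10^−11–10^−5 M (TP 10^−12–10^−6 M); peak fluorescence read 3.5 min, nonlinear regression.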

[5] = target: T5, human prostanoid EP4 receptor (Homo sapiens, UniProt P35408); assay: FLIPR Ca2+ signaling PG antagonist assay, EP4 stable cell line; settings: HEK-293 EBNA cells, human recombinant EP4 with chimeric Gqs; standard agonist PGE2
T5 construct: expressed in transfected cells
How it was run: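 Antagonism at human EP4 was assessed as a Ca^2+ signal in stable HEK-293 EBNA transfectants carrying chimeric Gqs. Dye-loaded cells in HBSS-HEPES at 37° C received test compound, then a 7-point 10-fold PGE2 series. Fluorescence was excited at 470-495 nm and read at 515-575 nm for 3.5 minutes, with each condition run in triplicate and buffer used as the negative control.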

T5 sequence (P35408 whole entry): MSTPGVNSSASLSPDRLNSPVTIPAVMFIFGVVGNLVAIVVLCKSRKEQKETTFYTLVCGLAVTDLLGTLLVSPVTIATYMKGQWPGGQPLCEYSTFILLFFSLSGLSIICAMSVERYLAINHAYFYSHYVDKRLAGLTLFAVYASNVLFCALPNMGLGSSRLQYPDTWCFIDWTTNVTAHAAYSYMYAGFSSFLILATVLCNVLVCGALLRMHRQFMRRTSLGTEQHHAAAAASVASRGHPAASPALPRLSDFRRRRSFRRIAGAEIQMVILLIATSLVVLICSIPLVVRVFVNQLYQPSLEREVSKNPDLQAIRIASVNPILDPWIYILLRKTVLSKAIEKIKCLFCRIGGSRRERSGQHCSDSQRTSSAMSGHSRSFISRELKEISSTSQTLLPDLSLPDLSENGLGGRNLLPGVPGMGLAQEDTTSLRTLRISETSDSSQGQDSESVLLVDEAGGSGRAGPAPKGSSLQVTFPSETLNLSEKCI
T4 sequence (P43116 whole entry): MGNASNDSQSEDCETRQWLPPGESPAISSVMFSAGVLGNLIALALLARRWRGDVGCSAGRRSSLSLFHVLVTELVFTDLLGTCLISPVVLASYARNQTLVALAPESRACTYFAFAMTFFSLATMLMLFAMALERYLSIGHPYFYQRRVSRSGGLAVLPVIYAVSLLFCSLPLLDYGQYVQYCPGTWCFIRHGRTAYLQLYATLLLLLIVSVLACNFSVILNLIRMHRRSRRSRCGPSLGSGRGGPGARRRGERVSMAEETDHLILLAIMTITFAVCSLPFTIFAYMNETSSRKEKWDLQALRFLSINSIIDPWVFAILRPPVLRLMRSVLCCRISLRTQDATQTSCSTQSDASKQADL
T1 sequence (P43088 whole entry): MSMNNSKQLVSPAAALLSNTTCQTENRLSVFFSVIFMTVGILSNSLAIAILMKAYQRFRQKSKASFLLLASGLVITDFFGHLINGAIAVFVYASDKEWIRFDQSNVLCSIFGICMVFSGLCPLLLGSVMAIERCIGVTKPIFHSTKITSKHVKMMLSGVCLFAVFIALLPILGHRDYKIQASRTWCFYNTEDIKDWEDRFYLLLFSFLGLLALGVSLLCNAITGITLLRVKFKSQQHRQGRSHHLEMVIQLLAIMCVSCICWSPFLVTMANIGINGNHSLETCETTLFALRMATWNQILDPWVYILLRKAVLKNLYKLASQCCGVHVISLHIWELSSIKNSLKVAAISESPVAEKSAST

Compound	Kb [1] [nM]	Kb [2] [nM]	Kb [3] [nM]	Kb [4] [nM]	Kb [5] [nM]
CC(C)COc1ccc(OC(F)(F)F)cc1Cn1ccc2cc(C(=O)O)ccc21 [Example 71, 1-(2-Isobutoxy-5-Trifluoromethoxy-Benzyl)-1H-Indole-5-Carboxylic Acid]	120	≥ 10000	100	≥ 10000	280
CC(C)COc1ccc(Br)cc1Cn1ccc2cc(C(=O)O)cnc21 [Example 72, 1-(5-Bromo-2-Isobutoxy-Benzyl)-1H-Pyrrolo[2,3-B]Pyridine-5-Carboxylic Acid]	25	1500	10	≥ 10000	220
CC(C)COc1ccc(Br)cc1Cn1ccc2nc(C(=O)O)ccc21 [Example 73, 1-(5-Bromo-2-Isobutoxy-Benzyl)-1H-Pyrrolo[3,2-B]Pyridine-5-Carboxylic Acid]	430	≥ 10000	80	≥ 10000	≥ 10000
CC(C)COc1ccc(OC(F)(F)F)cc1Cn1ccc2cc(C(=O)O)cnc21 [Example 74, 1-(2-Isobutoxy-5-Trifluoromethoxy-Benzyl)-1H-Pyrrolo[2,3-B]Pyridine-5-Carboxylic Acid]	660	290	60	≥ 10000	440
Cc1cn(Cc2cc(OC(F)(F)F)ccc2OCC(C)C)c2ccc(C(=O)O)cc12 [Example 75, 1-(2-Isobutoxy-5-Trifluoromethoxy-Benzyl)-3-Methyl-1H-Indole-5-Carboxylic Acid]	330	1300	20	6400	280
CCC(CC)COc1ccc(OC(F)(F)F)cc1Cn1cc(C)c2cc(C(=O)O)ccc21 [Example 77, 1-[2-(2-Ethyl-Butoxy)-5-Trifluoromethoxy-Benzyl]-3-Methyl-1H-Indole-5-Carboxylic Acid]	9600	3600	900	9200	1500
CCC(CC)COc1ccc(Br)cc1Cn1cnc2cc(C(=O)O)ccc21 [Example 78, 1-[5-Bromo-2-(2-Ethyl-Butoxy)-Benzyl]-1H-Benzoimidazole-5-Carboxylic Acid]	800	3800	145	≥ 10000	35
CC(C)COc1ccc(Br)cc1Cn1cnc2cc(C(=O)O)ccc21 [Example 79, 1-(5-Bromo-2-Isobutoxy-Benzyl)-1H-Benzoimidazole-5-Carboxylic Acid]	80	2000	11	≥ 10000	80
